Experimental data reported in article PMC12048343, “Discovery of a small molecule secreted clusterin enhancer that improves memory in Alzheimer’s disease mice” (npj Drug Discovery, 2025).
In brackets after ≈: the same amount, converted by molar mass.

Experiments:
Kinetic solubility = format: physicochemical; conditions: aqueous buffer, kinetic from dmso stock, PBS pH 7.4, 37 °C, 100 µM nominal
Procedure: Test compound (10 mM, 100% DMSO) was diluted separately into aqueous buffer (100 µM; PBS pH 7.4) and DMSO at various concentrations (1000, 100, 10, 1, 0.1 µM). The solutions were then incubated at 37 °C for 90 min and centrifuged (16000xg, 5 min). An aliquot of each supernatant was analyzed by UV/Vis (if possible) or LC-MS/MS. A standard curve was made by plotting the known amount of analyte per standard in DMSO vs. absorbance or chromatographic peak area. Kinetic solubility (mM) was calculated using the trendline equation with maximum absorbance or chromatographic peak area observed in the aqueous sample.

BRD2 = BRD2 (Homo sapiens, UniProt P25440); test: BRD2 inhibition assay; format: biochemical
[1] = tested on: sCLU secreted from human U-87 MG glioblastoma cells; test: Human sCLU AlphaLISA on supernatant of U-87 MG cells (HTS, re-test, dose response); format: cell-based; conditions: Homo sapiens; U-87 MG cells, 30 h, AlphaLISA of supernatant; read-out: EC50 for sCLU increase
Procedure: Cell culture supernatant (2 μL) was added to a 384-well proxy plate preloaded with AlphaLISA HiBlock buffer (2 µL, 1X, CAT#AL004C, Perkin Elmer). Then an anti-sCLU antibody mixture (2 µL, mAb J84, biotinylated (10 nM, Cat# 3717-6-1000, Mabtech) and mAb CLU aa 22-227 (Cat#AF7084, R&D Systems), Acceptor bead conjugated (50 µg/mL, Cat#6772001, Perkin Elmer)) was added and incubated at room temperature for 1 hour. AlphaScreen Streptavidin Donor beads (2 µL, Cat#6760002S, Perkin Elmer) were added, incubated for an additional 30 min in the dark, and the plate was read in an Envision plate reader.
Human glioblastoma U-87 MG cells were proliferated in EMEM with 10% FBS and 1% P/S (complete medium) in 10 cm dishes until approximately 90% confluent. Following trypsinization, a suspension of 2 × 10^5 cells/mL (25 µL) were added to 384-well plates containing complete medium (25 µL) and library compounds from 9 plates (5 µM). After incubation for 30 h at 37 °C and 5% CO2, 2 μL of cell culture supernatant were analyzed via human sCLU AlphaLISA as described above. Cell culture medium and cells were added to the 384-well plates using the MultiDrop. The BioMek FX was used to pin the drugs and transfer the cell culture supernatant. The MANTIS liquid handler was used to added human sCLU AlphaLISA reagents.
Human glioblastoma U-87 MG cells were proliferated in EMEM with 10% FBS and 1% P/S (complete medium) in 10 cm dishes until approximately 90% confluent. […] After incubation for 30 hours at 37 °C and 5% CO2, 2 μL of cell culture supernatant were analyzed via human sCLU AlphaLISA as described above.

U-87 MG cells = test: Cytotoxicity, MultiTox-Fluor (CNS gliotoxicity); conditions: U-87 MG, up to 50 µM
Description: Cell viability and toxicity were simultaneously assessed using the MultiTox-Fluor Multiplex Cytotoxicity Assay (Cat# PRG9200, Fisher Scientific) according to the manufacturer’s protocol.

HEPG2 cells = test: Cytotoxicity, MultiTox-Fluor (hepatotoxicity); format: cell-based; conditions: HEPG2, up to 50 µM
3xTg-AD mice = test: Barnes maze assessment of spatial learning and memory; format: in vivo, mouse; conditions: oral 15 mg/kg BID, 6 weeks; significant on Day 3 of training and in the 48-hour probe
Procedure: Male and female 3-month-old mice were administered DDL-357 via pipette feeding at a dose of 15 mg/kg BID (30 mg/kg/day). Mice were weighed before the first dose for the calculation of volume to be administered. The formulation used comprised DDL-357 as a 15 mg/mL solution dissolved in a strawberry flavored solution (propylene glycol/water/strawberry syrup, 2/1/1, v/v/v). ApoE4TR-5XFAD mice (7 mice, 3 females & 4 males-vehicle; 7 mice, 4females and 3 males – DDL357) were dosed for two weeks. 3xTg-AD mice (13 mice, 5 females & 8 males-vehicle; 13 mice, 4 females and 9 males- DDL357) were dosed for six weeks before entering Barnes Maze testing. At end of study, mice brain tissue and plasma were collected after euthanasia and perfusion. […]
Barnes Maze testing was performed as describe by Attar et al. Briefly, in a room with visual cues on the walls, mice are introduced in a circular maze containing 20 holes where 19 holes are closed during training and all 20 holes are closed during the probe trials. […] During the probe days, the target hole is closed, and spatial memory of the mouse is determined during a 90 s probe trial. […] Over the course of the training and probe trials, the software-calculated parameters included, but were not limited to, total distance traveled, speed, number of holes visited, latency to visiting the target/escape hole, percent time spent in the four quadrants of the maze.

SH-SY5Y cells = test: Cytotoxicity, MultiTox-Fluor (neurotoxicity); format: cell-based, human; conditions: up to 50 µM

BRD2, sequence (P25440 whole entry): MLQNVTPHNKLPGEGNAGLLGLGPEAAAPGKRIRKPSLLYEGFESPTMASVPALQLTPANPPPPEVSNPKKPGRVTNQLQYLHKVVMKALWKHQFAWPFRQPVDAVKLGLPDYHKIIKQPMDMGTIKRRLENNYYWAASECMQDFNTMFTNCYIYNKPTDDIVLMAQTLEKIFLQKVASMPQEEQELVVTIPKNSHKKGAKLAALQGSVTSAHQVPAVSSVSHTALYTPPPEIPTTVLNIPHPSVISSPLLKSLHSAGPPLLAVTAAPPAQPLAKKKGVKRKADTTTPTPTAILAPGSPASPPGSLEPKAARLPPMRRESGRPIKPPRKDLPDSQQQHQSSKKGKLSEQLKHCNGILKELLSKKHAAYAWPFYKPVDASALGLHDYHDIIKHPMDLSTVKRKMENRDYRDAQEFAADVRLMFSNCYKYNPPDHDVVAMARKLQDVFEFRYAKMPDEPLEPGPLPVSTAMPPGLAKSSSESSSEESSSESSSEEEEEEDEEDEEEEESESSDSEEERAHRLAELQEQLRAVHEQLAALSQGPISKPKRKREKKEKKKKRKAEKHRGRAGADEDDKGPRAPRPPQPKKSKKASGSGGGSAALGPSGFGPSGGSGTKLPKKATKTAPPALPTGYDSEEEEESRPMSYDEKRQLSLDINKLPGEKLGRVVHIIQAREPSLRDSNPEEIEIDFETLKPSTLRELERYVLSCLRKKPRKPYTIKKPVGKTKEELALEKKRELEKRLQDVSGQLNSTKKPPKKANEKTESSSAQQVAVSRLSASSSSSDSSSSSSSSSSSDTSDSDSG

| SMILES | solubility kinetic at 90 min (Kinetic solubility) [µM] | IC50 (BRD2) [nM] | EC50 [1] [nM] | Ctox (U-87 MG cells) [µM] | Ctox (HEPG2 cells) [µM] | Barnes maze performance (latency to escape hole) (3xTg-AD mice) | Ctox (SH-SY5Y cells) [µM] |
| --- | --- | --- | --- | --- | --- | --- | --- |
| Cc1sc2c(c1C)C(c1ccc(Cl)cc1)=N[C@@H](CC(=O)OC1COC1)c1nnc(C)n1-2 [DDL-356] | > 100 | 158 | 178 |  |  |  |  |
| Cc1sc2c(c1C)C(c1ccc(Cl)cc1)=N[C@@H](CC(=O)OC1CC1)c1nnc(C)n1-2 [DDL-357] | 80 (≈ 35.3 µg/mL) | 161 | 223 | ≥ 50 | ≥ 50 | performed better overall during both the training and probe phases | ≥ 50 |
